For series [1], the target named is topoisomerase II isolated from Giardia lamblia. In words: Topoisomerase II inhibition (Giardia lamblia enzyme). Format: biochemical. The note with it: 50% inhibition of topoisomerase II isolated from Giardia lamblia; read-out: IC50 Topoisomerase Activity II G.l.
The subject of series [2] is Giardia lamblia. In words: Inhibition of growth of Giardia lamblia in in vitro culture. In kind it is cell-based. The following applies: read-out: IC50 Giardia lamblia.
Series [3] addresses T1, topoisomerase II isolated from Drosophila melanogaster (Drosophila melanogaster, UniProt P15348).
T1 construct: topoisomerase II isolated from Drosophila melanogaster; from tissue
T1 sequence (P15348 1-1447): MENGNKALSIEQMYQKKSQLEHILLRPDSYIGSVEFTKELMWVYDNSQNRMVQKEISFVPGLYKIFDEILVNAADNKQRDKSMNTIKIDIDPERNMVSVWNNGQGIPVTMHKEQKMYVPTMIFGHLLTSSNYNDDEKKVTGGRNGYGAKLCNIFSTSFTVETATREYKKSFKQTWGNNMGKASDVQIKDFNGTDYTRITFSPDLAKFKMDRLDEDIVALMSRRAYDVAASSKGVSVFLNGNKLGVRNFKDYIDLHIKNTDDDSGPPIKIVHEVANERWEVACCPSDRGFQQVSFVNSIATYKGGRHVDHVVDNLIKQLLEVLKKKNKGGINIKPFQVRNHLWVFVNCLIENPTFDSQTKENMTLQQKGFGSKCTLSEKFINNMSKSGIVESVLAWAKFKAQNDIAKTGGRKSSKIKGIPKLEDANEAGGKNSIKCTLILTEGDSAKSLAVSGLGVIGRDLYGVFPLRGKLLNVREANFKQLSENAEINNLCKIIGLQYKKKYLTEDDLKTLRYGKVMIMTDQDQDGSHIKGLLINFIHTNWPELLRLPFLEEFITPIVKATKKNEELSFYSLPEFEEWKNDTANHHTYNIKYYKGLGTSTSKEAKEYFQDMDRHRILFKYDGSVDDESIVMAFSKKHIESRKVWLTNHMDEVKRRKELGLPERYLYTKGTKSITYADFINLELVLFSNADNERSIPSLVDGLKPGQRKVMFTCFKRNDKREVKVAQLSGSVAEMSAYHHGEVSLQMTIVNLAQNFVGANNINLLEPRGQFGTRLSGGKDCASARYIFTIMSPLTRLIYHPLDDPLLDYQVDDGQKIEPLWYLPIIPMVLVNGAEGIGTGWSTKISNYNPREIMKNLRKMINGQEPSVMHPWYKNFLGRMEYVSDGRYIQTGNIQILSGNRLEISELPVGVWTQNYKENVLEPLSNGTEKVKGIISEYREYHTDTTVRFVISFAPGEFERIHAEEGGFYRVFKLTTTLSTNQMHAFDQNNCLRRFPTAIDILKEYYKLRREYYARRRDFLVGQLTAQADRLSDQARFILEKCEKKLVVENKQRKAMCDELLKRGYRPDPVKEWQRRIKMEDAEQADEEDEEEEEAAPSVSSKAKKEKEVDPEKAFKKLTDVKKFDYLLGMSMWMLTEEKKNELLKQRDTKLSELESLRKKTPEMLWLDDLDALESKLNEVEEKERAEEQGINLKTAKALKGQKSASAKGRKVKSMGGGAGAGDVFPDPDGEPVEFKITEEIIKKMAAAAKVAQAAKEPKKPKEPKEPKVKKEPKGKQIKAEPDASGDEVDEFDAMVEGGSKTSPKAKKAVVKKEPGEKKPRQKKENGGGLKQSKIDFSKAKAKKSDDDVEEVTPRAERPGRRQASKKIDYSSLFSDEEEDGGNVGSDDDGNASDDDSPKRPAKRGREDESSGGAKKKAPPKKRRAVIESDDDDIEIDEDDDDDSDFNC
Briefly: Topoisomerase II inhibition (Drosophila melanogaster enzyme). In kind it is biochemical.

The test system of series [4] is Pneumocystis carinii. Briefly: In vivo activity against Pneumocystis carinii (lung cyst counts and toxicity). The note with it: for Toxicity: toxicity scale, larger value = more severe, values greater than 2 indicate deaths of some animals.
For series [5], the target named is topoisomerase I isolated from Pneumocystis carinii. In words: Topoisomerase I inhibition (Pneumocystis carinii enzyme). In kind it is biochemical. The following applies: 50% inhibition of topoisomerase I isolated from Pneumocystis carinii.
In series [6] the test system is poly A poly T. Briefly: DNA thermal melting (increase in Tm of poly A poly T). Format: binding. The note with it: MES buffer pH 6.0, 0.1 M NaCl, ratio of 0.3 moles of compound to nucleic acid bases. Here is the method: (§1) Thermal melting curves for DNA and its complexes with compounds from Examples 4, 6, and 7-9 are determined as previously described in F.A. Tanious, et al., J.Biomol. Structure & Dynamics 11:1063 (1994) and W.D. Wilson, et al., Biochemistry 32:4098 (1993), by following the adsorption change at 260 nm as a function of temperature. Tm values were determined from first derivative plots. Compounds are compared by the increase in Tm (ΔTm=Tm of complex - Tm of the free nucleic acid) they produce in MES buffer (0.01M 2-(N-morpholino) ethanesulfonic acid, 0.001 M EDTA, 0.1 M NaCl adjusted to pH 6.0) at saturating amounts of compound (a ratio of 0.3 moles of compound to nucleic acid bases) unless otherwise indicated.

Series [7] relates to oligomer d(GCGCAATTGCGC)2. In words: DNA thermal melting (increase in Tm of oligomer). In kind it is binding. The note with it: increase in thermal melting of the oligomer d(GCGCAATTGCGC)2; MES buffer pH 6.0. The procedure: as §1
Setting [8] is: 50% inhibition of growth of Giardia lamblia in in vitro culture.
Setting [9] is: 50% inhibition of topoisomerase II isolated from Drosophila melanogaster, read-out: IC50 Topoisomerase Activity II D.m.
Where [10] appears, read: Pneumocystis carinii, iv, read-out: cyst/g lung (% of control).

Where two headings read alike, the source gives them in different places. Some results are limits rather than exact numbers.

These results are taken from patent EP0792271B1, “FURAN DERIVATIVES FOR INHIBITING PNEUMOCYSTIS CARINII PNEUMONIA, GIARDIA LAMBLIA AND CRYPTOSPORIDIUM PARVUM” (priority 1994, dated 1996).

A word on the IC50: it is the concentration that gives 50% inhibition. For “2,5-bis[2-(imidazolinyl)phenyl]-3,4-bis(methoxymethyl)furan [Compound 18]”, the figures for the IC50 in series [1], in series [2] (setting [8]) and in series [3] (setting [9]) were 0.8 to 1 µM, 4.42 µM and 12.5 µM, respectively.

Regarding `NCCNC(=O)c1ccc2[nH]c(-c3ccc(-c4ccc(-c5ccc(-c6nc7cc(C(=O)NCCN)ccc7[nH]6)cc5)o4)cc3)nc2c1` [Compound 11, 2,5-bis{4-[5-(N-2-aminoethylamido)benzimidazol-2-yl]phenyl}furan], the values for the IC50 in series [1], in series [2] (Giardia duodenalis) and in series [3] were 5 µM, 0.62 µM and above 300 µM, respectively. The Toxicity entry in series [4] (dosage 4.1 µM/kg/day intravenous) is given as “+4”.

As for `CN(C)NC(=O)c1ccc(-c2ccc(-c3ccc(C(=O)NN(C)C)cc3)o2)cc1` [Compound 12, 2,5-bis(4-N,N-dimethylcarboxhydrazidephenyl) furan], the IC50 in series [1] was 0.6 to 1.2 µM; in series [2] (setting [8]), 0.35 µM; in series [3] (setting [9]), 30 to 60 µM. The “cyst/g lung (% of control)” value in series [4] (dosage 7.78 µM/kg/day intravenous, percentage of saline-treated controls) was 20.7 % of control. Besides, the Toxicity result in series [4] (dosage 7.78 µM/kg/day intravenous) was “+3”.

For `N=C(N)c1ccc(OCCCCCOc2ccc(C(=N)N)cc2)cc1` [Pentamidine, reference compound], the response vs control in vivo at 22.1 µM in series [4] (setting [10]) amounted to 3.66%. Moreover, in series [4] (dosage 22.1 µM/kg/day intravenous), the Toxicity result is reported as “+2”.

Consider `Cc1cc(-c2ccc(C(=N)NC(C)C)cc2)oc1-c1ccc(C(=N)NC(C)C)cc1` [Compound 20, 2,5-bis[4-(N-isopropylamidino)phenyl]-3-methylfuran], for which the IC50 was 1 to 2 µM in series [1], 50 to 100 µM in series [5], 4.4 µM in series [2] (Giardia duodenalis) and 3 µM in series [3].

Take `N=C(NCCO)c1ccc(-c2ccc(-c3ccc(C(=N)NCCO)cc3)o2)cc1` [Compound 16, 2,5-bis-{4-[(N-2-hydroxyethyl)amidino]phenyl}furan]: the IC50 is 1.2 to 2.5 µM in series [1], 0.78 µM in series [2] (Giardia duodenalis) and 25 to 50 µM in series [3]. In series [4] (dosage 10.4 µM/kg/day intravenous), the Toxicity is listed as 0. In addition, in series [6], the ΔTm DNA was found to be 21.1 °C.

In the case of `CN(C)CCCNC(=N)c1ccc(-c2ccc(-c3ccc(C(=N)NCCCN(C)C)cc3)o2)cc1` [Compound 14, 2,5-bis{4-[3-(dimethylaminopropyl)amidino]phenyl}furan], the concentration for half-maximal inhibition (IC50) in series [1] was 0.25 µM; in series [2] (Giardia duodenalis), 8.98 µM; in series [3] it was above 6.2 µM. For the same compound, the Toxicity result in series [4] (dosage 3.9 µM/kg/day intravenous) is listed as “+3”. In series [6], the ΔTm DNA is above 28 °C.

`N=C(NCCCN)c1ccc(-c2ccc(-c3ccc(C(=N)NCCCN)cc3)o2)cc1` [Compound 19, 2,5-bis-{4-[N-(3-aminopropyl)amidino]phenyl}furan]: the IC50 amounted to 0.625 µM in series [1], 0.059 µM in series [2] (Giardia duodenalis) and 25 µM in series [3].

Take `c1cc(-c2ccc(-c3ccc(C4=NC5CCCCC5N4)cc3)o2)ccc1C1=NC2CCCCC2N1` (centres unmarked) [Compound 5, 2,5-bis[4-(3a,4,5,6,7,7a-hexahydro-1H-benzimidazol-2-yl)phenyl]furan]: the IC50 in series [1] was 3 to 6 µM; in series [2] (Giardia duodenalis), 1.7 µM; in series [3], 50 µM. Also, the response vs control in vivo at 9.2 µM in series [4] (setting [10]) is 80.5%. Also, the Toxicity result in series [4] (dosage 9.2 µM/kg/day intravenous) is “+1”. Also, the ΔTm DNA in series [6] was found to be 24.5 °C. In addition, the ΔTm Oligomer in series [7] came out at 5.6 °C.

As to `OCCN1CCN=C1c1ccc(-c2ccc(-c3ccc(C4=NCCN4CCO)cc3)o2)cc1` [Compound 6, 2,5-bis{4[2-(N-2-hydroxyethyl)imidazolinyl]-phenyl}furan], the half-inhibitory concentration (IC50) in series [1] was determined as 20 µM; in series [2] (Giardia duodenalis) it was 5.3 µM; in series [3], 200 µM. Moreover, the response vs control in vivo at 4.8 µM in series [4] (setting [10]) was found to be 107%. Moreover, the Toxicity entry in series [4] (dosage 4.8 µM/kg/day intravenous) was “+3”. Further, the ΔTm DNA in series [6] was 12.2 °C. Further, the ΔTm Oligomer in series [7] was 1 °C.

Consider `c1cc(-c2ccc(-c3ccc(C4=NCCN4)cc3)o2)ccc1C1=NCCN1` [Compound 2, 2,5-bis[4-(2-imidazolinyl)phenyl]furan], for which the response vs control in vivo at 23.3 µM in series [4] (setting [10]) worked out at 35.4%. For the same compound, the Toxicity entry in series [4] (dosage 23.3 µM/kg/day intravenous) was “+2”. The IC50 stood at 0.8 µM in series [2] (Giardia duodenalis) and 8 µM in series [3].

On to `CCN1CCN=C1c1ccc(-c2ccc(-c3ccc(C4=NCCN4CC)cc3)o2)cc1` [Compound 7, 2,5-bis-{4-[2-(N-ethylimidazolinyl)]phenyl}furan], for which the IC50 in series [1] was 25 µM. For the same compound, the ΔTm DNA in series [6] is 11.8 °C.

On to `Cc1ccc(Oc2cc(-c3ccc(C4=NCCCN4)cc3)oc2-c2ccc(C3=NCCCN3)cc2)cc1` [Compound 10], for which the results for the IC50 in series [1], in series [2] (Giardia duodenalis) and in series [3] were 1 to 3 µM, 3.3 µM and 50 to 100 µM, respectively. For the same compound, the Toxicity entry in series [4] (dosage 1.8 µM/kg/day intravenous) is on record as “+3”. The ΔTm DNA in series [6] was above 28 °C.

For the compound `CN(C)CCNC(=N)c1ccc(-c2ccc(-c3ccc(C(=N)NCCN(C)C)cc3)o2)cc1` [Compound 17, 2,5-bis[4-N-(dimethylaminoethyl)amidino]phenyl furan], the IC50 worked out at 0.8 µM in series [1], 10.8 µM in series [2] (Giardia duodenalis) and 12.5 µM in series [3].

Turning to `N=C(NC1CC1)c1ccc(-c2ccc(-c3ccc(C(=N)NC4CC4)cc3)o2)cc1` [Compound 15, 2,5-bis-[4-N-(cyclopropylamidino)phenyl]furan], the results for the IC50 in series [1] and in series [2] (Giardia duodenalis) were 1.25 µM and 0.63 µM, respectively. Moreover, the ΔTm DNA in series [6] was above 28 °C.

Take `c1cc(-c2ccc(-c3ccc(C4=NCCCCN4)cc3)o2)ccc1C1=NCCCCN1` [Compound 4, 2,5-bis[4-(4,5,6,7-tetrahydro-1H-1,3-diazepin-2-yl)phenyl]furan]: the IC50 is 1.5 µM in series [1], 1.1 µM in series [2] (Giardia duodenalis) and 25 to 50 µM in series [3]. The response vs control in vivo at 0.18 µM in series [4] (setting [10]) was 115%. For the same compound, the response vs control in vivo at 2.3 µM in series [4] (setting [10]) is 2.9%. In addition, the Toxicity is on record as 0 in series [4] (dosage 0.18 µM/kg/day intravenous) and “+3” in series [4] (dosage 2.3 µM/kg/day intravenous). Moreover, the ΔTm DNA in series [6] is above 28 °C. The ΔTm Oligomer in series [7] came to 10.7 °C.
